Results reported in article doi:10.1101/2023.03.24.534094v2 (biorxiv, 2023).
Read-outs that look alike come from different tables or passages of the source. Values belong to the compound of their own block, whether it stands above or below them.

Experiments:
Assay in all cases: biochemical
[1] = target: MARK3 (Homo sapiens, UniProt P27448)
[2] = target: CLK1 (Homo sapiens, UniProt P49759)
[3] = target: T1, Erk7 (Homo sapiens, UniProt Q8TD08)
T1 sequence (Q8TD08 1-544): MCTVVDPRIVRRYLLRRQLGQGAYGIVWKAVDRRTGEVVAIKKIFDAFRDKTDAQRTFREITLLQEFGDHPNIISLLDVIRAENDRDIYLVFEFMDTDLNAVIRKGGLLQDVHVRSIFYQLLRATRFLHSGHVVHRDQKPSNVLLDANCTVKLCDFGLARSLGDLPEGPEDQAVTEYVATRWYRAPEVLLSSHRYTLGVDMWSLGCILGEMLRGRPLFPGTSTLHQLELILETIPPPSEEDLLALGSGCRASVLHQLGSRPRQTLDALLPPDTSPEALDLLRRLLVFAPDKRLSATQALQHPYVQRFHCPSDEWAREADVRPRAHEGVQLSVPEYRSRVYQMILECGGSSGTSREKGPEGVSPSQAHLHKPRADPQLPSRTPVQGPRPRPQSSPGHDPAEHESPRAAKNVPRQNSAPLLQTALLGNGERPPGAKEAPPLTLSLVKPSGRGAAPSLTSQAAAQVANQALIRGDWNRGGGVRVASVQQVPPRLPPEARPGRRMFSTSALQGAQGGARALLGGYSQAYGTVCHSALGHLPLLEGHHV

[4] = target: DYRK1A (Homo sapiens, UniProt Q13627)
[5] = target: HIPK2 (Homo sapiens, UniProt Q9H2X6)
[6] = target: CaMK2d (Homo sapiens, UniProt Q13557)
[7] = target: T2, CASK (Homo sapiens, UniProt O14936)
T2 sequence (O14936 1-926): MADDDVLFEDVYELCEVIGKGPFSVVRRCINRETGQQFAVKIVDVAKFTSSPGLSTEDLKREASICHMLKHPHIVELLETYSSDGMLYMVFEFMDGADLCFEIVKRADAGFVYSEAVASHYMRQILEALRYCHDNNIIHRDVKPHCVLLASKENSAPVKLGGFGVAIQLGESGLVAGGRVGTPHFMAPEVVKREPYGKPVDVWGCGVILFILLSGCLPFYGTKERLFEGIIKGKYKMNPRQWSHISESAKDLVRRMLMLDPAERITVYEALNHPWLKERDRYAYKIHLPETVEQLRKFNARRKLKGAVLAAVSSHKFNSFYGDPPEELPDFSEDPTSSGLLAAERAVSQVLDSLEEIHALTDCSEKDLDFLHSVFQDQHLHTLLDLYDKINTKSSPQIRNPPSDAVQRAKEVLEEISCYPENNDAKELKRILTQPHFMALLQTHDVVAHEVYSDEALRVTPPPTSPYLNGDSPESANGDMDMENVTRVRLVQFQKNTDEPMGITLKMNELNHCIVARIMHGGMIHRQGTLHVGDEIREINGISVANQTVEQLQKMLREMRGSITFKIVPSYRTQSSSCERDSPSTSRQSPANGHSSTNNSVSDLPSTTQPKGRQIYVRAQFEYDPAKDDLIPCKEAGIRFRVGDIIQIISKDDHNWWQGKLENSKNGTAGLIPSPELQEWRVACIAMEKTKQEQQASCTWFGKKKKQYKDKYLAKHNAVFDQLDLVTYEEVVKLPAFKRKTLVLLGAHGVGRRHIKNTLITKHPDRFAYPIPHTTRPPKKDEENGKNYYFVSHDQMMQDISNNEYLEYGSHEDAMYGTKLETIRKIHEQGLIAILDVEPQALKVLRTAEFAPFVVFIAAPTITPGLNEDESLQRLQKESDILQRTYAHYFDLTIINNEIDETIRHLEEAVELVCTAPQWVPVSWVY

[8] = target: T3, PLK4 (Homo sapiens, UniProt O00444)
T3 sequence (O00444 1-970): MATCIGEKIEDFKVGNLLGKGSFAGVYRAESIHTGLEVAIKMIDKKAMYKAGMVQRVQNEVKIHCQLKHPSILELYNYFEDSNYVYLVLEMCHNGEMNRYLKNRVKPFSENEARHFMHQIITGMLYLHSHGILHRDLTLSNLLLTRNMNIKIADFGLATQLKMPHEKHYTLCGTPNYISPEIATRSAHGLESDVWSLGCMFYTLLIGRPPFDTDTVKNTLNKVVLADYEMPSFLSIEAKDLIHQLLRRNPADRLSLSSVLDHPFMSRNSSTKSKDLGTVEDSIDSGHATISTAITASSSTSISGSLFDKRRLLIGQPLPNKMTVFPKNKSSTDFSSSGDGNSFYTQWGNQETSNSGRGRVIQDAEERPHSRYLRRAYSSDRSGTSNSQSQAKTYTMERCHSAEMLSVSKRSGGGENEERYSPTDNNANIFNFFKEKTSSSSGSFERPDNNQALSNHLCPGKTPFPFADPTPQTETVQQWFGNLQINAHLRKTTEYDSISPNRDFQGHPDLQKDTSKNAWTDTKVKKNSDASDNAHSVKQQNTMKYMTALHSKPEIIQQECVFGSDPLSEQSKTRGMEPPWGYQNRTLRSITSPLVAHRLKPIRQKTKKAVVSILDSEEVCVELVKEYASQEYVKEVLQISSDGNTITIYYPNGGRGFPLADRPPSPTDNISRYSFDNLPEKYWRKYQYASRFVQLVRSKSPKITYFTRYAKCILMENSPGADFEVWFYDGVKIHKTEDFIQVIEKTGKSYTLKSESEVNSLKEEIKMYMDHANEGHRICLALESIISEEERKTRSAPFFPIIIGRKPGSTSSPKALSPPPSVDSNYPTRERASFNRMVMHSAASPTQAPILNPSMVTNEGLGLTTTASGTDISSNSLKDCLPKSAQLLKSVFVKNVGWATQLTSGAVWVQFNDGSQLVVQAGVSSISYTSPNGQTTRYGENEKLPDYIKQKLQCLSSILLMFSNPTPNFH

Sequence of CLK1 (P49759 whole entry): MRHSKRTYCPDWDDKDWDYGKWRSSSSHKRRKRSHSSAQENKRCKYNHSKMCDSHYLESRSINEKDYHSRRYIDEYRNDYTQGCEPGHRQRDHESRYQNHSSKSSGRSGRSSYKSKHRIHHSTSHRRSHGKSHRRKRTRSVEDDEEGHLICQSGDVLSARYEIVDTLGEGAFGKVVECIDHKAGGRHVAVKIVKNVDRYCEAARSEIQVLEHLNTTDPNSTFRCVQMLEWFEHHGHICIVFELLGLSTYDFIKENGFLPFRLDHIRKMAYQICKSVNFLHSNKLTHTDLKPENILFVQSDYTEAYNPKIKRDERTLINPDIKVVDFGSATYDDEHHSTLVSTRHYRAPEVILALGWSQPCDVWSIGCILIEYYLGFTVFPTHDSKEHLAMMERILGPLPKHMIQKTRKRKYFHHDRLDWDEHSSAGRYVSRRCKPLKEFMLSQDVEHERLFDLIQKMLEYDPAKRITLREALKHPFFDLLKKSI
Sequence of CaMK2d (Q13557 whole entry): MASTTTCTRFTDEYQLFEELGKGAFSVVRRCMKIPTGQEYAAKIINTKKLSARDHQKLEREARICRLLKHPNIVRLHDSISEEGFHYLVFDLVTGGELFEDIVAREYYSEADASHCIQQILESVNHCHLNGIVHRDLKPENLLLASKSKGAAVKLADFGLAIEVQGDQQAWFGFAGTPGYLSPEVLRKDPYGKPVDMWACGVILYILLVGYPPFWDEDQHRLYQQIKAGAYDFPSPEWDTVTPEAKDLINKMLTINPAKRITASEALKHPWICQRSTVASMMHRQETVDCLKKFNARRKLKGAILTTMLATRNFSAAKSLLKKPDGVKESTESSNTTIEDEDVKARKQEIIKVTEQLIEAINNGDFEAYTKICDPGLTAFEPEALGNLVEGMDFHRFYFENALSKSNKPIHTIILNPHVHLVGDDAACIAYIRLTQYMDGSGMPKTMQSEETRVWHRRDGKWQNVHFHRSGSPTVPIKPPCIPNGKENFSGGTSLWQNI
Sequence of MARK3 (P27448 whole entry): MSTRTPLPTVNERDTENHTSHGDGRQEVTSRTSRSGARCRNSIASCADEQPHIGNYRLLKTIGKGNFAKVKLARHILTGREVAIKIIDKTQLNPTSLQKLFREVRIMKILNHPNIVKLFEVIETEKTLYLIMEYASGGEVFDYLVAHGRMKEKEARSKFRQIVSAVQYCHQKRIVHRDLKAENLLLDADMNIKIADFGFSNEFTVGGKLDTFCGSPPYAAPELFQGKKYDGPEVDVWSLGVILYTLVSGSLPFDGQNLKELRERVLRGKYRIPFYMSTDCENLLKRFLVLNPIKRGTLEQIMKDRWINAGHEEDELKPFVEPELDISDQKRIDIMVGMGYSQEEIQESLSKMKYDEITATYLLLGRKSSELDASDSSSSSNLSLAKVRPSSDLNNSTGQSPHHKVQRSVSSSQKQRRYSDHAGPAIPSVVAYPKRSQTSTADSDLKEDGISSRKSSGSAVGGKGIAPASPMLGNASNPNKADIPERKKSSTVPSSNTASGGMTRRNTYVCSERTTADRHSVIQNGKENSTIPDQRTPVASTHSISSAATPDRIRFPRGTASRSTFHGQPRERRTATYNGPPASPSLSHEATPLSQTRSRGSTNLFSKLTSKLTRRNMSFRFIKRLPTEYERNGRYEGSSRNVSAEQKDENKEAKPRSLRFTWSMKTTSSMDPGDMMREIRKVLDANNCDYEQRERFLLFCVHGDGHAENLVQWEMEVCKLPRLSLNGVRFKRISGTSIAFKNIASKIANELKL
Sequence of HIPK2 (Q9H2X6 whole entry): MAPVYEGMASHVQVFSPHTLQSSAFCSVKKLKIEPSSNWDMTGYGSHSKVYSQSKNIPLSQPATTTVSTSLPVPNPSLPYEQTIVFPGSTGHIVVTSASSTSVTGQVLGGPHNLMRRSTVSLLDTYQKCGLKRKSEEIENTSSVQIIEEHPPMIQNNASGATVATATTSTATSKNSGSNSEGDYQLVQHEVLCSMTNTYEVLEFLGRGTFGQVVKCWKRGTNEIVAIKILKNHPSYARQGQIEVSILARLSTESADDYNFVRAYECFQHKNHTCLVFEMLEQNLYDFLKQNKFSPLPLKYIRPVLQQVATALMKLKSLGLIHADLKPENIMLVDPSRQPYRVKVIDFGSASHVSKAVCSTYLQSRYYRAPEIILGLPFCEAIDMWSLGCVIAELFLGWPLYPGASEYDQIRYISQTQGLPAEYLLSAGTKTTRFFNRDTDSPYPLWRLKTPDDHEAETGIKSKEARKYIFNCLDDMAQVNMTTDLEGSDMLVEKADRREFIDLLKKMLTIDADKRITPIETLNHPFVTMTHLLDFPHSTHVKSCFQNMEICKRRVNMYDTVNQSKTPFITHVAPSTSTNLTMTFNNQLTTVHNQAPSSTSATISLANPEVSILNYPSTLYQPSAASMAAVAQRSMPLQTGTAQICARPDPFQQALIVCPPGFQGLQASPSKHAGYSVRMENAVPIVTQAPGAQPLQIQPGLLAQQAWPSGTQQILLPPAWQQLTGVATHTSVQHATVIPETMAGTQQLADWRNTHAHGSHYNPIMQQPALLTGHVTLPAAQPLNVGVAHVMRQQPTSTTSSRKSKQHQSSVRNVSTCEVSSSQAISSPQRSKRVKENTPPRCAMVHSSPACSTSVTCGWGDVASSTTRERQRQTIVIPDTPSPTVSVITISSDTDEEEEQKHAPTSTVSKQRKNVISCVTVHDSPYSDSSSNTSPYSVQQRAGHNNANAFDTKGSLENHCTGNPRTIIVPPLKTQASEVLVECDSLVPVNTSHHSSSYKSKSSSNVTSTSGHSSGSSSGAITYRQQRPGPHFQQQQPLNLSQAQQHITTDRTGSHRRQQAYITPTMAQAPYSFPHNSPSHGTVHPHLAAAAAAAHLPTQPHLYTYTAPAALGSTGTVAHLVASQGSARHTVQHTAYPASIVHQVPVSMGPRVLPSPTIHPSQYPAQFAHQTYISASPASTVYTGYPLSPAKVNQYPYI

Compound: CNc1ncc2cc(-c3cc(F)ccc3F)c(=O)n(CCCCN)c2n1 [compound 5, 8-(4-Aminobutyl)-6-(2,5-difluorophenyl)-2-(methylamino)pyrido[2,3-d]pyrimidin-7(8H)-one]
- ΔTm at 10 µM ([1]; read-out: dTm MR22 (5)): 1.1 °C
- ΔTm at 10 µM ([2]; read-out: dTm MR22 (5)): 0.4 °C
- ΔTm at 10 µM ([3]; read-out: dTm MR22 (5)): -1.5 °C
- ΔTm at 10 µM ([4]; read-out: dTm MR22 (5)): 0 °C
- ΔTm at 10 µM ([5]; read-out: dTm MR22 (5)): 0.1 °C
- ΔTm at 10 µM ([6]; read-out: dTm MR22 (5)): -0.6 °C
- ΔTm at 10 µM ([7]; read-out: dTm MR22 (5)): -0.4 °C
- ΔTm at 10 µM ([8]; read-out: dTm MR22 (5)): 0.3 °C

Compound: CNc1ncc2cc(-c3ccccc3Cl)c(=O)n(CCCCN)c2n1 [compound 4, 8-(4-Aminobutyl)-6-(2-chlorophenyl)-2-(methylamino)pyrido[2,3-d]pyrimidin-7(8H)-one]
- ΔTm at 10 µM ([1]; read-out: dTm MR21 (4)): 5.3 °C
- ΔTm at 10 µM ([2]; read-out: dTm MR21 (4)): -1.2 °C
- ΔTm at 10 µM ([3]; read-out: dTm MR21 (4)): 0.8 °C
- ΔTm at 10 µM ([4]; read-out: dTm MR21 (4)): 1.4 °C
- ΔTm at 10 µM ([5]; read-out: dTm MR21 (4)): 0.1 °C
- ΔTm at 10 µM ([6]; read-out: dTm MR21 (4)): 0 °C
- ΔTm at 10 µM ([7]; read-out: dTm MR21 (4)): 0 °C
- ΔTm at 10 µM ([8]; read-out: dTm MR21 (4)): 0 °C

Compound: CNc1ncc2cc(-c3ccc(-c4cccc(C)n4)cc3Cl)c(=O)n(CC3OCC(N)CO3)c2n1 (stereo not drawn) [compound 2, G-5555]
- dTm G-5555 (2) ([1]; 10 µM, binder): 8.8 °C
- dTm G-5555 (2) ([2]; 10 µM, binder): 0.1 °C
- dTm G-5555 (2) ([3]; 10 µM, binder): 0.3 °C
- dTm G-5555 (2) ([4]; 10 µM, binder): -1.0 °C
- dTm G-5555 (2) ([6]; 10 µM, binder): -0.1 °C
- dTm G-5555 (2) ([7]; 10 µM, binder): -0.8 °C
- dTm G-5555 (2) ([8]; 10 µM, binder): 3.4 °C

More lines, main results first:

- ΔTm at 10 µM ([1]; read-out: dTm 7): 1.7 °C
- ΔTm at 10 µM ([2]; read-out: dTm 7): 0.4 °C
- ΔTm at 10 µM ([4]; read-out: dTm 7): -0.6 °C
- ΔTm at 10 µM ([5]; read-out: dTm 7): 0.5 °C
- ΔTm at 10 µM ([6]; read-out: dTm 7): 0.4 °C
- ΔTm at 10 µM ([7]; read-out: dTm 7): -0.1 °C
- ΔTm at 10 µM ([8]; read-out: dTm 7): 0.4 °C
Compound: CNc1ncc2cc(-c3cc(Br)ccc3Cl)c(=O)n(C[C@H]3OC[C@H](N)CO3)c2n1 [compound 7, 8-(((2r,5r)-5-Amino-1,3-dioxan-2-yl)methyl)-6-(5-bromo-2-chlorophenyl)-2-(methylamino)pyrido[2,3-d]pyrimidin-7(8H)-one]
- ΔTm at 10 µM ([3]; read-out: dTm 7): 0.1 °C

- ΔTm at 10 µM ([1]; read-out: dTm 6): 3.5 °C
- ΔTm at 10 µM ([2]; read-out: dTm 6): 0.2 °C
- ΔTm at 10 µM ([4]; read-out: dTm 6): 0 °C
- ΔTm at 10 µM ([5]; read-out: dTm 6): 0.2 °C
- ΔTm at 10 µM ([6]; read-out: dTm 6): 0 °C
- ΔTm at 10 µM ([7]; read-out: dTm 6): -0.3 °C
- ΔTm at 10 µM ([8]; read-out: dTm 6): 0.4 °C
Compound: CNc1ncc2cc(-c3cc(Br)ccc3Cl)c(=O)n(CCCCN)c2n1 [compound 6, 8-(4-Aminobutyl)-6-(5-bromo-2-chlorophenyl)-2-(methylamino)pyrido[2,3-d]pyrimidin-7(8H)-one]
- ΔTm at 10 µM ([3]; read-out: dTm 6): 0.3 °C
